Experimental data: publication PMC6081459, “Pathogen-derived HLA-E bound epitopes reveal broad primary anchor pocket tolerability and conformationally malleable peptide binding” (Nature Communications, 2018)
Like-named read-outs stand apart in the source and are kept apart here.

Columns and labels:
[1] = system: Mamu-E-restricted CD8+ T cells; assay type: cell-based, rhesus macaques
HLA-E-β2m complexes [2] = assay type: binding, human; conditions: 200 M excess peptide, 2 h at room temperature
HLA-E-β2m complexes [3] = assay type: binding, human; conditions: for Thermal melt (Tm) of peptide-refolded HLA-E-β2m complex: Protein Thermal Shift dye, 5 μg complex, ramp 25 to 95 °C, quadruplicate, median Derivative Tm
[4] = system: Mamu-E restricted CD8^+ T cells; assay type: cell-based, rhesus macaques (Macaca mulatta)

Row | Sequence | Rhesus CD8+ T cell responses to peptide presented by Mamu-E versus HLA-E [1] | Displacement of VL9 from pre-refolded HLA-E-β2m-VL9 complexes (BN-PAGE) (HLA-E-β2m complexes [2]) | Thermal melt (Tm) of peptide-refolded HLA-E-β2m complex (HLA-E-β2m complexes [3]) | Mamu-E restricted CD8+ T cell responses (IFNγ and/or TNFα, ICS) [4] | Mamu-E restricted CD8+ T cell responses (IFNγ and/or TNFα, ICS) ([4]; PBMC of six RM vaccinated with HIVGag-insert RhCMV68-1 vector, blocking with VL9 (MHC-E) or CLIP + anti-MHC-II) | Increase in stability (Tm) of the HLA-E-β2m complex versus no peptide refolded forms (HLA-E-β2m complexes [3]) [°C]
1 | RLPAKAPLL [Mtb44] | of comparable magnitude | readily displaced | 50.2 °C | elicited Mamu-E-restricted CD8^+ T cell responses | – | –
2 | RMYSPTSIL [RL9HIV] | of comparable magnitude | also displaced VL9 from HLA-E-β2m complexes | not possible to obtain a reproducible thermal melt pattern | – | elicited Mamu-E restricted CD8^+ T cell responses | –
3 | VMAPRTVLL [VL9, reference compound] | – | – | 47.5 °C | – | – | ≤ 10
